# According to PubChem BioAssay AID270 (DTP/NCI, 2004):
# “And” between values parts separate entries of the source, which are not always exact repeats. Identical values can stand only once. Records with an inconclusive call do not appear.
# System: BDF1 mice, s.c. Lewis lung carcinoma, T/C %
# Experiment: NCI In Vivo Anticancer Drug Screen. Data for tumor model Lewis Lung Carcinoma (subcutaneous) in B6D2F1 (BDF1) mice
# In short: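 Antitumor effect in vivo is scored from survival or tumor burden, reported as treated relative to vehicle controls.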
structure (smiles),measurement,setting,value
O=C1OC(C(O)CO)C(O)=C1O (centres undefined),T/C,"endpoint: median survival time, dose: 1.0 mg/kg/injection, schedule: Q02DX009 (ip), vehicle: saline, higher = longer survival",113 % of control
same,T/C,"endpoint: median survival time, dose: 1000.0 mg/kg/injection, schedule: Q02DX009 (ip), vehicle: saline, higher = longer survival",87 % of control
same,T/C,"endpoint: median survival time, dose: 10000.0 mg/kg/injection, schedule: Q02DX009 (ip), vehicle: saline, higher = longer survival",10 % of control
Nc1nc(SCc2ccccc2)c2ncn(C3CCCC3)c2n1,T/C,"endpoint: mean tumor weight, dose: 75.0 mg/kg/injection, schedule: Q01DX011 (ip), vehicle: other, higher = larger tumour",115 % of control
same,T/C,"endpoint: mean tumor weight, dose: 150.0 mg/kg/injection, schedule: Q01DX011 (ip), vehicle: other, higher = larger tumour",81 % of control
same,T/C,"endpoint: mean tumor weight, dose: 300.0 mg/kg/injection, schedule: Q01DX011 (ip), vehicle: other, higher = larger tumour",54 % of control
same,T/C,"endpoint: mean tumor weight, dose: 600.0 mg/kg/injection, schedule: Q01DX011 (ip), vehicle: other, higher = larger tumour",47 % of control and 65 % of control
same,T/C,"endpoint: mean tumor weight, dose: 750.0 mg/kg/injection, schedule: Q01DX011 (ip), vehicle: other, higher = larger tumour",52 % of control
CC(=O)Oc1ccc(OC(C)=O)c2c1C(=O)C=CC2=O,T/C,"endpoint: median survival time, dose: 0.38 mg/kg/injection, schedule: Q01DX009 (ip), vehicle: Klucel (hydroxypropylcellulose) (HPC), higher = longer survival",107 % of control
same,T/C,"endpoint: median survival time, dose: 0.75 mg/kg/injection, schedule: Q01DX009 (ip), vehicle: Klucel (hydroxypropylcellulose) (HPC), higher = longer survival",96 % of control
same,T/C,"endpoint: median survival time, dose: 1.5 mg/kg/injection, schedule: Q01DX009 (ip), vehicle: Klucel (hydroxypropylcellulose) (HPC), higher = longer survival",100 % of control
same,T/C,"endpoint: median survival time, dose: 3.0 mg/kg/injection, schedule: Q01DX009 (ip), vehicle: Klucel (hydroxypropylcellulose) (HPC), higher = longer survival",113 % of control
same,T/C,"endpoint: median survival time, dose: 3.12 mg/kg/injection, schedule: Q01DX009 (ip), vehicle: Klucel (hydroxypropylcellulose) (HPC), higher = longer survival",111 % of control
c1cc[c]([Sn]([S][Sn]([c]2ccccc2)([c]2ccccc2)[c]2ccccc2)([c]2ccccc2)[c]2ccccc2)cc1,T/C,"endpoint: median survival time, dose: 50.0 mg/kg/injection, schedule: Q01DX009 (ip), vehicle: saline with Tween-80, higher = longer survival",91 % of control
same,T/C,"endpoint: median survival time, dose: 100.0 mg/kg/injection, schedule: Q01DX009 (ip), vehicle: saline with Tween-80, higher = longer survival",93 % of control
same,T/C,"endpoint: median survival time, dose: 200.0 mg/kg/injection, schedule: Q01DX009 (ip), vehicle: saline with Tween-80, higher = longer survival",102 % of control
COC(=O)Nc1nc2ccc(C(=O)c3ccccc3)cc2[nH]1,T/C,"endpoint: median survival time, dose: 2.0 mg/kg/injection, schedule: Q04DX003 (ip), vehicle: saline with Tween-80, higher = longer survival",89 % of control
same,T/C,"endpoint: median survival time, dose: 4.0 mg/kg/injection, schedule: Q04DX003 (ip), vehicle: saline with Tween-80, higher = longer survival",95 % of control
same,T/C,"endpoint: median survival time, dose: 8.0 mg/kg/injection, schedule: Q04DX003 (ip), vehicle: saline with Tween-80, higher = longer survival",98 % of control
same,T/C,"endpoint: median survival time, dose: 32.0 mg/kg/injection, schedule: Q04DX003 (ip), vehicle: saline with Tween-80, higher = longer survival",95 % of control
same,T/C,"endpoint: median survival time, dose: 64.0 mg/kg/injection, schedule: Q04DX003 (ip), vehicle: saline with Tween-80, higher = longer survival",102 % of control
O=c1[nH]c2cc(Cl)c(Cl)cc2o1,T/C,"endpoint: mean tumor weight, dose: 22.0 mg/kg/injection, schedule: Q01DX011 (ip), vehicle: carboxymethylcellulose (CMC), higher = larger tumour",79 % of control
same,T/C,"endpoint: mean tumor weight, dose: 35.0 mg/kg/injection, schedule: Q01DX011 (ip), vehicle: carboxymethylcellulose (CMC), higher = larger tumour",93 % of control
same,T/C,"endpoint: mean tumor weight, dose: 50.0 mg/kg/injection, schedule: Q01DX011 (ip), vehicle: carboxymethylcellulose (CMC), higher = larger tumour",95 % of control
same,T/C,"endpoint: mean tumor weight, dose: 75.0 mg/kg/injection, schedule: Q01DX011 (ip), vehicle: carboxymethylcellulose (CMC), higher = larger tumour",77 % of control and 84 % of control
same,T/C,"endpoint: mean tumor weight, dose: 115.0 mg/kg/injection, schedule: Q01DX011 (ip), vehicle: carboxymethylcellulose (CMC), higher = larger tumour",114 % of control
c1ccc(OP(Oc2ccccc2)Oc2ccccc2)cc1,T/C,"endpoint: mean tumor weight, dose: 37.0 mg/kg/injection, schedule: Q01DX011 (ip), vehicle: other, higher = larger tumour",110 % of control
same,T/C,"endpoint: mean tumor weight, dose: 55.0 mg/kg/injection, schedule: Q01DX011 (ip), vehicle: other, higher = larger tumour",103 % of control
same,T/C,"endpoint: mean tumor weight, dose: 83.0 mg/kg/injection, schedule: Q01DX011 (ip), vehicle: other, higher = larger tumour",91 % of control
same,T/C,"endpoint: mean tumor weight, dose: 125.0 mg/kg/injection, schedule: Q01DX011 (ip), vehicle: other, higher = larger tumour",79 % of control
Oc1cc(O)c2c(c1)O[C@H](c1ccc(O)c(O)c1)[C@@H](O)C2,T/C,"endpoint: mean tumor weight, dose: 50.0 mg/kg/injection, schedule: Q01DX011 (ip), vehicle: saline, higher = larger tumour",76 % of control
same,T/C,"endpoint: mean tumor weight, dose: 100.0 mg/kg/injection, schedule: Q01DX011 (ip), vehicle: saline, higher = larger tumour",94 % of control
same,T/C,"endpoint: mean tumor weight, dose: 200.0 mg/kg/injection, schedule: Q01DX011 (ip), vehicle: saline, higher = larger tumour",72 % of control
same,T/C,"endpoint: mean tumor weight, dose: 400.0 mg/kg/injection, schedule: Q01DX011 (ip), vehicle: saline, higher = larger tumour",74 % of control
CN(C1=NS(=O)(=O)N=C(N(C)c2ccccc2)O1)c1ccccc1,T/C,"endpoint: median survival time, dose: 14.37 mg/kg/injection, schedule: Q01DX009 (ip), vehicle: Klucel (hydroxypropylcellulose) (HPC), higher = longer survival",111 % of control
same,T/C,"endpoint: median survival time, dose: 28.75 mg/kg/injection, schedule: Q01DX009 (ip), vehicle: Klucel (hydroxypropylcellulose) (HPC), higher = longer survival",104 % of control
same,T/C,"endpoint: median survival time, dose: 57.5 mg/kg/injection, schedule: Q01DX009 (ip), vehicle: Klucel (hydroxypropylcellulose) (HPC), higher = longer survival",103 % of control
same,T/C,"endpoint: median survival time, dose: 115.0 mg/kg/injection, schedule: Q01DX009 (ip), vehicle: Klucel (hydroxypropylcellulose) (HPC), higher = longer survival",100 % of control
same,T/C,"endpoint: median survival time, dose: 230.0 mg/kg/injection, schedule: Q01DX009 (ip), vehicle: Klucel (hydroxypropylcellulose) (HPC), higher = longer survival",96 % of control
